For the data set, the system named is kinetic aqueous solubility, PBS pH 7.4, LC-UV/MS. Description: Inhibitors of HPGD: Aqueous Solubility Profiling. The settings on record: hits give high values.

SMILES strings stand for the structures. ≈ marks a conversion by molar mass, not a printed value.

The solubility is the concentration that dissolves in the medium under given conditions. For `Cc1cc(-c2nnc3n2CCCCC3)c(C)n1-c1ccccc1`, the solubility was 35.9 µM (≈ 11 µg/mL). The result for `Cc1cccc(-n2cnc3cc(C(=O)N4CCCCC4)ccc32)c1` reads 3 µM (≈ 0.958 µg/mL).
